From patent US10576066B2, “Histone deacetylase as a modulator of PDLI expression and activity” (H. LEE MOFFITT CANCER CENTER AND RESEARCH INSTITUTE, INC., priority 2014, dated 2020)

Key:
PDL1 [1] = experiment: PDL1 expression by flow cytometry in melanoma cell lines treated with HDACi; type: cell-based; settings: two murine and five human melanoma cell lines, up to 72 hours, relative to DMSO; FIG. 22
Procedure: B16, WM983A, Sk-Mel21, WM1366, WM35, and WM793 melanoma cells lines were treated with DMSO (“D”), 10 nM LBH589 (“LB”), 500 nM MGCD0103 (“MG”), or 500 nM MS275 (“MS”) for 72 hours. PDL1 expression was assessed by flow cytometry. Histograms shown are for PDL1 expression or autofluorescence (solid grey) of 10,000 cells or more.
Melanoma cell lines were treated with DMSO, 10 nM LBH589 (squares), 1.5 μM ACY1215 (triangles), 500 nM MS275 (diamonds), 500 nM CLB66 (circles), or 500 nM MGCD0103 (X). PDL1 expression at indicated time points was assessed by flow cytometry. Voltages between time point measurements was standardized using rainbow beads with standard emissions. Mean fluorescence intensity minus autofluorescencee is graphed for each time point. DMSO treatment was plotted as zero hours.
In this Example, HDACi targeting class I HDACs, but not class II, is shown to augment expression of PDL1 in melanoma cells. Two murine and five human melanoma cell lines were treated for up to 72 hours with DMSO, LBH589 (pan-HDACi), MS275 (class I inhibitor), MGCD0103 (class I inhibitor), an HDAC6 specific inhibitor, or a class IIa inhibitor (FIG. 21). […] Increased expression was noted as early as 24 hours after treatment and peaked at 72 to 96 hours post-treatment (FIG. 23).

B16 WT melanoma = experiment: In vivo growth of B16 WT melanoma in SCID mice treated with HDAC6 inhibitor; settings: FIG. 14A
Procedure: FIGS. 14A and 14B show differences in growth of melanoma cells after HDAC6 inhibition in altered immune systems. […] Mice were treated with antibodies to deplete CD4, CD8, and NK cells.

B16 melanoma cells = experiment: In vivo growth of B16 melanoma in C57BL/6 mice treated with HDAC6 inhibitors; settings: wild type B16 melanoma cells in C57BL/6 mice, treated daily with 20 mg/kg; FIG. 7B
Excerpt: Pan-HDAC inhibitors (pan-HDACi) slows the proliferation and improves the immunogenicity of melanoma cells (Woods, D. M., et al. Melanoma Res (2013)). However, the non-selective nature of pan-HDACi makes the assumption of the specific participation of HDACs on these processes impossible. […] The next step was identifying if HDAC6KD would affect the growth of melanoma cells in vivo. […] A similar result was obtained in another experiment injecting wild type B16 melanoma cells into C57BL/6 mice treated daily with 20 mg/kg of the HDAC6inh Nexturastat A or Nexturastat B (FIG. 7B). The amount of PDL1 and activation of STAT3 was decreased in tumors isolated after the in vivo treatment with HDAC6inh (FIG. 7C).
These in vitro results were further supported by in vivo tumor growth studies. […] A similar outcome was identified after inoculation of HDAC6KD B16 melanoma cells in C57BL/6 mice (FIG. 14A). […] This delay in tumor growth could be a reflection of their diminished proliferation and an increase in their immunogenicity leading to improved immune recognition and clearance. These studies provide critical insights into the molecular pathways that are involved in the regulatory role of HDAC6 in cell proliferation, survival, and cytokine signaling of human melanoma cells.

HDAC6 = experiment: Recruitment of HDAC6 to the IL-10 promoter; type: cell-based; settings: cells treated with STAT3 inhibitor
Excerpt: HDAC6 is recruited to regulatory sequences in gene promoters such as MYC (Toropainen, S., et al. J Mol Biol. 400:284-294 (2010)), glucocorticoid receptor (Govindan, M. V. J Biol Chem. 285:4489-4510 (2010)) and estrogen receptor a-inducible genes (Palijan, A., et al. J Biol Chem. 284:30264-30274 (2009)). However, there is no evidence showing that HDAC6 is directly affecting the acetylation status of chromatin. […] Thus, the transcriptional regulatory effects observed for HDAC6 could be mediated by other regulatory factors recruited along with this deacetylase to specific DNA sequences. […] HDAC6 and STAT3 are recruited to the same region of the IL-10 promoter, and the recruitment of HDAC6 is impaired when cells are treated with the STAT3 inhibitor CPA-7.

PDL1 [2] = experiment: PDL1 expression in B16 tumors of LBH589-treated mice (flow cytometry); type: in vivo, C57BL/6 mice; settings: 15 mg/kg IP Mon, Wed, Fri, one week, FIG. 24
Procedure: C57BL/6 mice were injected subcutaneously with 100,000 B16 cells. When tumors became palpable, treatment with 15 mg/kg LBH589 via IP injection began on a Mon, Wed, Fri schedule. After one week of treatment, mice were sacrificed, tumors harvest and analyzed by flow cytometry for PDL1 expression.

Multiple Myeloma = settings: preliminary studies (Santo et al. 2012); cited from earlier work

For `Nc1ccccc1NC(=O)c1ccc(CNC(=O)OCc2cccnc2)cc1` [MS275], the PDL1 expression (PDL1 [1]) was “dose dependent, increases”.
For `CCCCN(Cc1ccc(C(=O)NO)cc1)C(=O)Nc1ccc2cn[nH]c2c1` [Nexturastat B], the “in vivo growth of B16 WT melanoma” value (B16 WT melanoma) was “not significantly different” and the tumor growth (B16 melanoma cells) was “delayed tumor growth”.
For CPA-7, the “recruitment of HDAC6 to the IL-10 promoter” value (HDAC6) was “impaired”.
With `Cc1[nH]c2ccccc2c1CCNCc1ccc(/C=C/C(=O)NO)cc1` [LBH589] the “PDL1 expression in vivo” value (PDL1 [2]) was “upregulates” and the PDL1 expression (PDL1 [1]) was “dose dependent, increases”.
For `Nc1ccccc1NC(=O)c1ccc(CNc2nccc(-c3cccnc3)n2)cc1` [MGCD0103], the PDL1 expression (PDL1 [1]) was “dose dependent, increases”.
For `O=C(CCCCCCNC(=O)c1cnc(N(c2ccccc2)c2ccccc2)nc1)NO` [ACY1215], the anti-tumor activity (Multiple Myeloma) is given as “important anti-tumor activity”.
In the case of `CCCCN(Cc1ccc(C(=O)NO)cc1)C(=O)Nc1ccccc1` [Nexturastat A], the tumor growth (B16 melanoma cells) is reported as “delayed tumor growth”.
